Reference: US20250276008A1, “USE OF LITHIUM-CONTAINING COMPOUNDS IN TREATMENT OF TUMORS” (Institute of Basic Medical Sciences Chinese Academy of …, priority 2023, published 2025)

Legend:
CD8^+ T cells [1] = experiment: Cytosolic Ca2+ / lysosomal Ca2+ release in CD8+ T cells; format: cell-based, mouse; conditions: for increase in cytosolic Ca^2+ concentrations in CD8^+ T cells induced by LC: blocking calcium release from endoplasmic reticulum or mitochondria; for Ca^2+ release in lactic acid-treated CD8^+ T cells: increasing lysosomal pH value
From the text: Next, we investigated the molecular mechanism by which LC activated TFEB in CD8^+ T cells. It has been reported (Nat Cell Biol. 2015 March;17(3):288-99) that in addition to being able to degrade exogenous or endogenous biomacromolecules, lysosomes, like endoplasmic reticulum and mitochondria, are also storage sites for Ca^2+ and can initiate the transduction of calcium-related downstream signals.
(§1) In order to better track the flow of H^+, ^2D (deuterium)-acetic acid (DAC) or ^2D-sulfuric acid (D2SO4) was added to the culture medium of CD8^+ T cells. […] The K-loop of V-ATPase is located in the hydrophobic lipid bilayer and is essential for the pumping of cytosolic H^+ into the lysosomal lumen. Li^+ has been reported to bind to the K-loop of V-ATPase in Enterococcus hirde and induce deprotonation of the Glul39 residue (J. Am. Chem. Soc. 2011.133. 2860-2863).

MCT1 = experiment: Localization of MCT1 to mitochondria (Western blot of isolated T cell mitochondria); format: cell-based, mouse; conditions: for expression / localization of MCT1 in mitochondria: Western blot of isolated T cell mitochondria
From the text: The inventor further explored the molecular mechanism by which LC led to the shunting of lactic acid to mitochondria. Entry of lactic acid into mitochondria requires the localization of MCT1 to the inner mitochondrial membrane IMM (Redox Biol. 2020 August;35:101454). […] MCT1 is generally recognized as a secreted protein with an endoplasmic reticulum-targeting sequence that enters the endoplasmic reticulum and localizes to the plasma membrane. We hypothesized that LC could induce MCT1 variants with mitochondrial targeting sequences (MTSs). However, no MCT1 variant was found in LC-treated T cells by sequencing analysis, and only one transcript of MCT1 was found after alignment analysis on NCBI. A MTS was found at the N-terminus of MCT-1protein by protein sequence analysis, which was present downstream of the endoplasmic reticulum targeting sequence, forming a double-peak chimeric sequence. This double-peak sequence may direct MCT-1 to target the endoplasmic reticulum or mitochondria, and may be regulated by serine/threonine phosphorylation of PKA or PKC (Avadhani, N. G. 2011. FEBS J 278, 4218-4229).

lysosomal V-ATPase = experiment: Lysosomal pH, Atp6v0c, H+ (deuterium) flow and Li+ accumulation in CD8+ T cells; format: cell-based, mouse
Experimental: as §1

CD8^+ T cells [2] = experiment: Exogenous lactic acid on CD3/CD28-activated CD8+ T cells (flow cytometry, qPCR, ELISA, CTV); format: cell-based, C57BL/6J mouse; conditions: exogenous lactic acid at different concentrations, dose-dependent
From the text: In order to further explore the effect of lactic acid on CD8^+ T cells, we used C57BL/6J mouse spleen-derived CD8^+ T cells to be activated by CD3/CD28 magnetic beads and stimulated by exogenous lactic acid at different concentrations.

CD8^+ T cells [3] = experiment: Entry and subcellular distribution of lactate and hydrogen ions in CD8+ T cells (lysosensor, LC-MS/MS); format: cell-based, mouse
Experimental: CD8^+ T cells were treated with exogenous hydrochloric acid (HCl) or sodium lactate (NaLa) as controls, and the entry of lactate and hydrogen ions into the cells was detected.
When exogenous lactic acid enters the cell, excess hydrogen ions are further transported to acidic organelles, such as lysosomes, in order to maintain the stability of the cytoplasmic pH values.

V-ATPase = experiment: V0C expression, V-ATPase activity and lysosomal pH in lactic acid-treated CD8+ T cells; format: cell-based, mouse
Experimental: In order to further elucidate the mechanism by which histone lactylation modification regulates T cell function, the downstream target genes regulated by histone lactylation modification were explored by using ChIP-Seq experiments, and the enrichment scores of genes corresponding to histone lactylation sites were calculated. […] ATP6V0C gene encodes the V0 subunit C protein in V-ATPase that plays a key role in pumping H^+, which is responsible for pumping cytosolic H^+ into the lysosomal lumen and thus maintaining the low pH value of lysosomes. […] Therefore, exogenous lactic acid results in lactylation of histones and thus up-regulating ATP6V0C expression and activity, thereby shunting cytosolic H^+ into lysosomes in response to cytosolic acid stress, but lysosomal acidification may inhibit the activity of CD8^+ T cells.

CD8^+ T cells [4] = experiment: Lactyl-CoA (LC-MS/MS) and histone lactylation (Western blot, anti-pan-Kla) in CD8+ T cells; format: cell-based, mouse; conditions: after treating CD8+ T cells with exogenous lactic acid
From the text: We further investigated the effect of lactic acid distributed in the nucleus on the function of CD8^+ T cells. In 2019, Zhao […] team discovered a new type of histone epigenetic modification, lactylation modification (Kla), which can regulate the phenotype and function of macrophages (Nature. 2019 October: 574 (7779): 575-580). On this basis, we hypothesized that lactic acid entering the nucleus would lead to lactylation modification of histones, thereby regulating the function of CD8^+ T cells.

O=C1CSC(c2ccccc2Cl)c2cc(Cl)ccc2N1 (stereo not drawn) [CGP37157]
increase in cytosolic Ca^2+ concentrations in CD8^+ T cells induced by LC (CD8^+ T cells [1]): did not affect

CN1CCN(c2nc(C3=C(c4c[nH]c5ccccc45)C(=O)NC3=O)c3ccccc3n2)CC1 [Sotrastaurin]
localization of MCT1 to mitochondria induced by LC (MCT1; kinase inhibitors added, results not shown): almost completely blocked

CCCCCCCCCCCCCC(=O)O[C@@H]1[C@@H](C)[C@@]2(O)[C@@H](C=C(CO)C[C@]3(O)C(=O)C(C)=C[C@@H]23)[C@@H]2C(C)(C)[C@]12OC(C)=O [PMA]
expression / localization of MCT1 in mitochondria (MCT1): significantly increased

CO/C1=C\C(C)=C\[C@@H](C)[C@@H](O)[C@@H](C)C/C(C)=C/C=C/[C@H](OC)[C@@H]([C@@H](C)[C@@H](O)[C@H](C)[C@@]2(O)C[C@@H](O)[C@H](C)[C@@H](C(C)C)O2)OC1=O [bafilomycin A1]
entry of Li^+ into lysosomes (lysosomal V-ATPase; LC-treated CD8+ T cells): blocked | Ca^2+ release (CD8^+ T cells [1]; LC-treated CD8+ T cells with bafilomycin A1): reduced | Ca^2+ release in lactic acid-treated CD8^+ T cells (CD8^+ T cells [1]): promote

Ryanodine
increase in cytosolic Ca^2+ concentrations in CD8^+ T cells induced by LC (CD8^+ T cells [1]): did not affect

CCN(CC)CCCC(C)Nc1ccnc2cc(Cl)ccc12 (stereo not drawn) [chloroquine]
Ca^2+ release in lactic acid-treated CD8^+ T cells (CD8^+ T cells [1]): promote

CC(O)C(=O)O (stereo not drawn) [lactic acid]
activation of CD8^+ T cells (CD25 expression; gene and protein expression of IL-2, IFN-γ, TNF-α) (CD8^+ T cells [2]; CD3/CD28 magnetic beads): significantly inhibited | apoptosis of CD8^+ T cells (CD8^+ T cells [2]): significantly promoted | proliferation of CD8^+ T cells (CTV proliferation assay) (CD8^+ T cells [2]): significantly inhibited | expression of lysosome-related gene Atp6v0c (lysosomal V-ATPase): significantly up-regulated | lactylation of the Atp6v0c gene (ChIP-seq) (lysosomal V-ATPase): high level of lactylation | lysosome acidification (lysosensor staining) (CD8^+ T cells [3]): rapidly acidify lysosomes | entry of lactate and hydrogen ions into the cells (CD8^+ T cells [3]; HCl or sodium lactate as controls): simultaneously transported into the cells | activity of V-ATPase (V-ATPase; CD8+ T cells): significantly up-regulated | protein expression of V0C (V-ATPase; CD8+ T cells): significantly up-regulated | lysosomal pH value (V-ATPase; exogenous lactic acid, decreasing from 5.4): 4.4 | expression / localization of MCT1 in mitochondria (MCT1): significantly reduced | content of lactyl-CoA (LC-MS/MS) (CD8^+ T cells [4]): significantly increased | level of histone lactylation (Western blotting, anti-pan-Kla antibody) (CD8^+ T cells [4]): significantly increased
